The text below walks through data of US9080216B2, “Genetic changes in ATM and ATR/CHEK1 as prognostic indicators in cancer” (University of Pittsburgh-of the CommonWealth System of …, priority 2007, dated 2015).

Format in all cases: cell-based, human
The test system of experiment [1] is UPCI:SCC104. Briefly: Clonogenic cell survival assay. The procedure:
(§1) Clonogenic Cell Survival Assay. To assess cell survival in response to ionizing radiation, clonogenic survival assays were performed. Two thousand cells were seeded in 60 mm Petri dishes and allowed to adhere overnight. […] The culture medium was replaced at the end of 7 days. Untreated cells cultured in parallel were used to determine relative plating efficiency. After 12 days, the cells were fixed with 70% ethyl alcohol and stained with Giemsa (Sigma, St. Louis, Mo.) and the number of colonies was assessed. A colony was defined as a cluster of ≧50 cells, having formed from a single cell. All experiments were performed in triplicate, and the error reported as one standard deviation from the mean.
SiRNA Transfection. ATR or CHEK1 inhibitions were carried out using the respective siRNAs for a specific knockout. RNA interference of ATR and CHEK1 was performed using Smartpool ATR and CHEK1 duplexes respectively, obtained from Dharmacon (Lafayette, Colo.). Nonspecific (scrambled) control duplexes (Dharmacon) were used for nonspecific siRNA treatment. The duplexes were reconstituted in 1×DNA-free RNA re-suspension buffer provided by Dharmacon and aliquoted according to the manufacturer's instructions. For transfection, the OSCC cell lines were seeded in 60 mm dishes or T25 flasks and transfected with siRNA duplexes using Lipofectamine 2000 (Invitrogen) according to the manufacturer's instructions. The individual siRNA duplex sequences are enumerated in Appendix B. The final working siRNA concentration achieved was between 90-100 nM. We used cells treated with no vector (untreated), empty vector (mock-treated), cells transfected with a nonspecific siRNA, and a specific ATR or CHEK1 siRNA for all of our experiments. At the end of 48 h post-transfection, appropriate treatments (ionizing radiation or aphidicolin treatment) were carried out as described earlier.

The subject of experiment [2] is OSCC. The experiment is described as follows: Cell cycle analysis by flow cytometry after caffeine and irradiation. The following applies: following irradiation. The protocol: Cell Cycle Analysis by Flow Cytometry. […] These cells were washed with phosphate-buffered saline (PBS), and fixed with 70% ethanol. The cells were then treated with 80 μg/ml RNase A and 50 μg/ml propidium iodide (Invitrogen-Molecular Probes, Carlsbad, Calif.) for 45 min at 37° C. The stained cells were analyzed using a Coulter Epics XL Flow Cytometer in the UPCI Flow Cytometry Facility.

For experiment [3], the system named is UPCI:SCC084. The experiment is described as follows: Clonogenic cell survival assay. The protocol:
as §1

Experiment [4] concerns UPCI:SCC104. Briefly: Cell cycle analysis by flow cytometry. As to conditions: 1 mM or 5 mM caffeine 1 h prior to 5 Gy IR. The procedure:
Cell Cycle Analysis by Flow Cytometry. […] These cells were washed with phosphate-buffered saline (PBS), and fixed with 70% ethanol. The cells were then treated with 80 μg/ml RNase A and 50 μg/ml propidium iodide (Invitrogen-Molecular Probes, Carlsbad, Calif.) for 45 min at 37° C. The stained cells were analyzed using a Coulter Epics XL Flow Cytometer in the UPCI Flow Cytometry Facility. SiRNA Transfection. ATR or CHEK1 inhibitions were carried out using the respective siRNAs for a specific knockout. RNA interference of ATR and CHEK1 was performed using Smartpool ATR and CHEK1 duplexes respectively, obtained from Dharmacon (Lafayette, Colo.). Nonspecific (scrambled) control duplexes (Dharmacon) were used for nonspecific siRNA treatment. The duplexes were reconstituted in 1×DNA-free RNA re-suspension buffer provided by Dharmacon and aliquoted according to the manufacturer's instructions. For transfection, the OSCC cell lines were seeded in 60 mm dishes or T25 flasks and transfected with siRNA duplexes using Lipofectamine 2000 (Invitrogen) according to the manufacturer's instructions. The individual siRNA duplex sequences are enumerated in Appendix B. The final working siRNA concentration achieved was between 90-100 nM. […]
Background: Flow cytometry measures light scatter and fluorescence of single cells or particles in a stream.

Where [5] appears, read: different doses of caffeine, compared to UPCI:SCC066, 105 and control NHOK.
Setting [6] is: cell lines with an upregulated ATR-CHEK1 pathway including GM09607 (AT cells).

Entries after “also recorded” stand apart in the source; their conditions may differ.

In the case of `Cn1c(=O)c2c(ncn2C)n(C)c1=O` [caffeine], the “reduction in colony survival” value in experiment [1] (0.5 mM caffeine, UPCI:SCC104, absence of any DNA damaging agents) is on record as > 50%; in experiment [3] (0.5 mM caffeine, UPCI:SCC084, absence of any DNA damaging agents), > 50%. Also, the colony survival result in experiment [1] (1 mM caffeine, UPCI:SCC104) was “complete absence of survival”; in experiment [3] (1 mM caffeine, UPCI:SCC084), “complete absence of survival; also recorded: Complete inhibition of colony formation”. In addition, the “sensitivity to caffeine (clonogenic cell survival)” value in experiment [1] (setting [5]) and in experiment [3] (setting [5]) was “increased sensitivity” each time. The “sensitivity to caffeine (cell cycle profile)” value in experiment [2] (cell lines with an intact G1 checkpoint and normal ATR-CHEK1 expression) is “did not demonstrate any sensitivity”. In experiment [2] (setting [6]), the “accumulation of cells in the S and G2M phases” value was “clearly reduced”. Further, the “sub-G0 population (dead cells)” value in experiment [2] (setting [6]) is listed as “increased”. Also, the G2M accumulation entry in experiment [4] is given as “dose dependent reduction”. Moreover, the “sub G0 peak (dead cells)” value in experiment [4] is given as “increase”.
